Measured values from patent US11655221B2, “Certain (2S)-N-[(1S)-1-cyano-2-phenylethyl]-1,4-oxazepane-2-carboxamides as dipeptidyl peptidase 1 inhibitors” (AstraZeneca AB, priority 2014, dated 2023).

Legend:
[1] = Quantitative whole-body autoradiography (QWBA), aortic retention; type: in vivo
[2] = Test B: In-vitro competitive aortic tissue binding assay; parameters: species or system rat; details: 100 μM test compound, competition with [14C]-labelled WO2010/128324 Ex. 3, categories strong binder, medium binder, no binder
Protocol: Test B: In-Vitro Competitive Aortic Tissue Binding Assay
Aortic homogenate was prepared from the thoracic aortae of Han Wistar rats. Freshly isolated to thoracic aortae were frozen, and later thawed and stripped of non-elastic material.
Homogenate concentration was adjusted to 30 mg/mL in Puck's saline, and aliquots were stored at −80° C. until use. Positive and negative control compounds and test compounds were made up to 100 mM in DMSO, and added to 1 mL aliquots of aortic homogenate in Puck's saline for a final concentration of 100 μM. Homogenate samples were pre-incubated with test compounds at 37° C., rotating, overnight. [^14C]4-Amino-N-[(1S)-1-cyano-2-(4′-cyanobiphenyl-4-yl)ethyl]tetrahydro-2H-pyran-4-carboxamide was then added to all samples to a final concentration of 100 μM, and samples were incubated at 37° C., rotating, for a further 2 h. Protein was precipitated from each sample by the addition of 10 mL acetone, pre-chilled to −20° C. Samples were left overnight at −20° C. to allow complete precipitation. Precipitate was pelleted by centrifugation at 4,500×g at 4° C. for 20 min, an aliquot of supernatant was removed for analysis, and the remainder of the supernatant discarded. Precipitate was washed by resuspension in 10 mL 80% methanol in distilled water, and re-pelleted by centrifugation at 4,500×g at 4° C. for 20 min. […] After final wash, precipitate was air-dried, and dissolved overnight in 1 mL NCSII Tissue Solubiliser. 1 mL aliquots of supernatants were added to 5 mL Ultima Gold scintillation fluid (Perkin Elmer, MA, U.S.A.), and 1 mL solubilised pellets were added to 5 mL Hionic-Fluor scintillation fluid (Perkin Elmer, Mass., U.S.A.). Radioactivity of samples was determined on a Beckman LS6500 multipurpose scintillation counter (Beckman Coulter, IN, U.S.A.). […] Duplicate samples were tested for each compound on each experimental occasion, and at least two experiments were run for each test compound. […] 1-way ANOVA and Bonferroni's multiple comparison tests were performed to calculate significance of differences from vehicle control.

[3] = biological target: recombinant human DPP1 (rhDPP1) (Homo sapiens (Human), UniProt P53634); assay: Test A1: Fluorescence assay for recombinant human (RH) DPP1; type: biochemical; details: Test A1, H-Gly-Arg-AMC substrate, 22° C. (Examples 1-35)
Sequence of recombinant human DPP1 (rhDPP1) (P53634 231-394): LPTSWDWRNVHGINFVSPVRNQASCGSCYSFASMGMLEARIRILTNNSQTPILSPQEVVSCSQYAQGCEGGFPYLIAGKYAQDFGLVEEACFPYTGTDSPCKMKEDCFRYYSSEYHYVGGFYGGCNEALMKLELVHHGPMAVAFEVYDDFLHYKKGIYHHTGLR
Sequence of recombinant human DPP1 (rhDPP1) (P53634 25-143): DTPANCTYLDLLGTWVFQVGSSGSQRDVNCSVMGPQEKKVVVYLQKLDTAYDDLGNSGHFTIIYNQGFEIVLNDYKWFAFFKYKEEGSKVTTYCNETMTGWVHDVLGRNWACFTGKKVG
Sequence of recombinant human DPP1 (rhDPP1) (P53634 395-463): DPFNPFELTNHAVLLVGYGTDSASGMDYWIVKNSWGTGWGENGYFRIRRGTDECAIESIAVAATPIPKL
Protocol: Test A1: Fluorescence Assay for Recombinant Human (RH) DPP1
The activity of DPP1 was determined by measuring the enzymatic release of aminomethyl coumarin (AMC) from the peptide substrate (H-Gly-Arg-AMC), which leads to an increase in fluorescence intensity at λex=350 nm and λem=450 nm. The assay was carried out in black 384 well plates in a final volume of 50 μl at 22° C. The assay conditions contained the following: 25 mM piperazine buffer pH 5.0; 50 mM NaCl, 5 mM DTT; 0.01% (v/v) Triton X-100; 100 μM H-Gly-Arg-AMC and rhDPP1 (˜50 pM). […] Routinely, inhibitors were pre-incubated with rhDPP1 for 30-60 min prior to the addition of the peptide substrate to start the reaction for a further 60 min at 22° C.

aortic retention in rat QWBA studies [1] | Aortic Tissue Binding [2] | DPP1 activity, pIC50 [3] | Compound
high level of aortic retention | Strong binder (reference) |  | N#Cc1ccc(-c2ccc(C[C@@H](C#N)NC(=O)C3(N)CCOCC3)cc2)cc1 [WO2010/128324 (Ex. 3), 4-amino-N-[(1S)-1-cyano-2-(4′-cyanobiphenyl-4-yl)ethyl]tetrahydro-2H-pyran-4-carboxamide]
 | No binder |  | Cn1c(=O)oc2ccc(-c3ccc(C[C@@H](C#N)NC(=O)[C@@H]4CNCCCO4)cc3)cc21 [Example 2, (2S)—N-{(1S)-1-Cyano-2-[4-(3-methyl-2-oxo-2,3-dihydro-1,3-benzoxazol-5-yl)phenyl]ethyl}-1,4-oxazepane-2-carboxamide]
 |  | 7.61 | CN1C(=O)CNc2ccc(-c3ccc(C[C@@H](C#N)NC(=O)[C@@H]4CNCCCO4)cc3)cc21 [Example 35, (2S)—N-{(1S)-1-Cyano-2-[4-(4-methyl-3-oxo-1,2,3,4-tetrahydroquinoxalin-6-yl)phenyl]ethyl}-1,4-oxazepane-2-carboxamide]
 | Strong binder |  | Cn1c(=O)oc2ccc(-c3ccc(C[C@@H](C#N)NC(=O)C4(N)CCOCC4)cc3)cc21 [WO2010/128324 (Example 17)]
 | Binder |  | N#Cc1ccc(-c2ccc(C[C@@H](C#N)NC(=O)[C@@H]3CCCCN3)cc2)cc1 [WO2009/074829 (Example 24)]
 | Medium binder |  | Cn1c(=O)oc2ccc(-c3ccc(C[C@@H](C#N)NC(=O)[C@@H]4CCCCN4)cc3)cc21 [WO2009/074829 (Example 96)]
